Where two headings read alike, the source gives them in different places.

In data set [1] the target is T1, PPARα (h) (Homo sapiens, UniProt Q07869).
T1 construct: CEREP (contract assay)
T1 sequence (Q07869 1-468): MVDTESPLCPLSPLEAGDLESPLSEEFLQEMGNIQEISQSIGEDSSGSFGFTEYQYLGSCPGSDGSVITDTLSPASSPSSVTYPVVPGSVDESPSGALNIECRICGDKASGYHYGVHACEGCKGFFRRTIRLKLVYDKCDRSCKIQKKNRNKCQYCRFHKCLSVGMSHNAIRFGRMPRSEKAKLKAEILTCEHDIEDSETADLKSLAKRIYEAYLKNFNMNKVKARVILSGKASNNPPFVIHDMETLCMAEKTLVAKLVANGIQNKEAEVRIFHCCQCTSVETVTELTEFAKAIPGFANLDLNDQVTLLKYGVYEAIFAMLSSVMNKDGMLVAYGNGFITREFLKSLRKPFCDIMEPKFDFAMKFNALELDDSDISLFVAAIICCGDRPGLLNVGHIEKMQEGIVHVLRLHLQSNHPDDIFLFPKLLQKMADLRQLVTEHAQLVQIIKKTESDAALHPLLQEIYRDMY
Description: CEREP panel. Conditions: 10 µM. It counts as binding.

In data set [2] the target is T2, Human recombinant TRPV1 (Homo sapiens, UniProt Q8NER1).
T2 construct: expressed in transfected cells; host or cells: HEK293 (TRPV1-HEK-293, gift from John Davis, GlaxoSmithKline)
Description: cell-based. Conditions: for IC50: read-out: TRPV1 IC50 for antagonism or desensitization. In kind it is cell-based.

In data set [3] the target is T3, hCB2R (Homo sapiens, UniProt P34972). Description: biochemical. In kind it is binding.
For data set [4] the following is noted: i.v., mice; for C0: 1.0-2.0 mg/kg, extrapolated.
The target in data set [5] is T4, hCB1R (Homo sapiens, UniProt P21554).
T4 construct: host or cells: CHO
Description: cell-based. In kind it is cell-based.

For data set [6] the following is noted: 1 μM.
Data set [7] has as its system Ca2+ channel (L, diltiazem site). Put plainly: CEREP panel. In kind it is binding. Conditions: 10 µM.
For data set [8], the target named is T3, hCB2R. Put plainly: cell-based. In kind it is cell-based. Further details: expressed in transfected cells; host or cells: Flp-In-293 (Invitrogen #R750-07), pcDNA5/FRT.
Data set [9] has as its target T5, mu (MOP) (h) (Homo sapiens, UniProt P35372).
T5 construct: CEREP (contract assay)
Put plainly: CEREP panel. In kind it is binding. The note with it: 10 µM.

Data set [10] deals with T6, mCB1R (Mus musculus, UniProt P47746).
T6 construct: from tissue; host or cells: brain of male C57BL/6J mice
Description: biochemical. It counts as binding. Conditions: mouse brain membranes.

Data set [11] concerns the target T7, Rat recombinant TRPV3 (Rattus norvegicus, UniProt Q4QYD9).
T7 construct: expressed in transfected cells; host or cells: HEK293 (TRPV3-HEK-293, gift from HB Bradshaw, Indiana University)
T7 sequence (Q4QYD9 1-791): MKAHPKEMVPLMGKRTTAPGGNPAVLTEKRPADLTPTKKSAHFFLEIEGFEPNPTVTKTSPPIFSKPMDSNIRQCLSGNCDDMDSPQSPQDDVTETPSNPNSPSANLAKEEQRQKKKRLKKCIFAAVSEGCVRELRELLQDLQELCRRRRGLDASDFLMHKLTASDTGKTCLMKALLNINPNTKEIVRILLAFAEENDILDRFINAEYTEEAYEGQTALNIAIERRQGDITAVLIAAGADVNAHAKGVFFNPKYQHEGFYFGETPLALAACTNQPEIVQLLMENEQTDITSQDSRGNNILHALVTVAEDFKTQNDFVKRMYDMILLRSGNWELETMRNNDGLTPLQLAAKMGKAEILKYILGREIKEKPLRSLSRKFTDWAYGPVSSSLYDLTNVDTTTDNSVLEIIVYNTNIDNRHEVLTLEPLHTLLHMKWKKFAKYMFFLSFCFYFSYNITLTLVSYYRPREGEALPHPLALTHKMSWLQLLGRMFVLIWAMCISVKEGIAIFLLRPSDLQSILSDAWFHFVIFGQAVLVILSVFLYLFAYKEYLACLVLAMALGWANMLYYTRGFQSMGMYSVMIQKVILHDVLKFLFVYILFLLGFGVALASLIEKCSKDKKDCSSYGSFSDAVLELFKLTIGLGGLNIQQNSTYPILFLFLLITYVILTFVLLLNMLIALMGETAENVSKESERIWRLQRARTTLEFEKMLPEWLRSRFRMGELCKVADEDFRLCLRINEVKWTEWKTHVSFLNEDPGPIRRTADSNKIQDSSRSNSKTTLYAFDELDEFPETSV
Description: cell-based. In kind it is cell-based. Conditions: for IC50: vs thymol 100μM, read-out: TRPV3 IC50 for antagonism or desensitization.

Setting [12] is: CHO membranes, Leiden, HU210 and SR144528 from Roche.

T5 sequence (P35372 whole entry): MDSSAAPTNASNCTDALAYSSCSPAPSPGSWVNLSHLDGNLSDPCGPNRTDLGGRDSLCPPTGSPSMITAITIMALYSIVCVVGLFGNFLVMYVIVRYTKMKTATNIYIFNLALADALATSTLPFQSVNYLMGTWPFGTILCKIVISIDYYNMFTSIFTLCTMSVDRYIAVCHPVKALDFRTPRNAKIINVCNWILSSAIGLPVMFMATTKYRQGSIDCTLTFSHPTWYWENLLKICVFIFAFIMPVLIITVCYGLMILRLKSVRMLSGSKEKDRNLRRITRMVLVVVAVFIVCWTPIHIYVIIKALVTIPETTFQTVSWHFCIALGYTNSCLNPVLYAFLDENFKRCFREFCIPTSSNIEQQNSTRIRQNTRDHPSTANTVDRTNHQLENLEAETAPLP
T6 sequence (P47746 whole entry): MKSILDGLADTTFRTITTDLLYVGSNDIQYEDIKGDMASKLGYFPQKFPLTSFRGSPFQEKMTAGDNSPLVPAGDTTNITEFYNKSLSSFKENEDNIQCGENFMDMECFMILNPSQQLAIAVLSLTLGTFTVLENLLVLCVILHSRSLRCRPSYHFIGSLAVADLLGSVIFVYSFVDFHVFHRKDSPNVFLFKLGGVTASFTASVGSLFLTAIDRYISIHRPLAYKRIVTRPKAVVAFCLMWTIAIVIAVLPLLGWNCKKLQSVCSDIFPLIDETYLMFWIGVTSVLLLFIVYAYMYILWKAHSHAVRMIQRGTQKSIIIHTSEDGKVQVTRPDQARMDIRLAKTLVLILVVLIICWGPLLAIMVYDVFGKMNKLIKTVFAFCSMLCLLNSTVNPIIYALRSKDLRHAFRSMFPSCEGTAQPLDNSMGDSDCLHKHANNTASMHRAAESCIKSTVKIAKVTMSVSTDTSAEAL
T4 sequence (P21554 whole entry): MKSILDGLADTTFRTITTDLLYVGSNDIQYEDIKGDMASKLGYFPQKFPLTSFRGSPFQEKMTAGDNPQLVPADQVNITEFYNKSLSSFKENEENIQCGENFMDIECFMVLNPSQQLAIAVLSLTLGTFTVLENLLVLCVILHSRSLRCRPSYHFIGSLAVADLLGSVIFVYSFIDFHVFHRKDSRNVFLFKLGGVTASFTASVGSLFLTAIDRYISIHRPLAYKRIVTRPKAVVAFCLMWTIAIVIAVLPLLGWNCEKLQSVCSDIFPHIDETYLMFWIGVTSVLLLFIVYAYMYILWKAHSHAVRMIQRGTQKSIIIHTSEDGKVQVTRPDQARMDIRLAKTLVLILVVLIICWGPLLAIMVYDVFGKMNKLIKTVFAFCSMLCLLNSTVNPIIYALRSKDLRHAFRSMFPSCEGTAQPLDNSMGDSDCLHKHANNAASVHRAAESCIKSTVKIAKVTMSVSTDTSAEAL
T2 sequence (Q8NER1 whole entry): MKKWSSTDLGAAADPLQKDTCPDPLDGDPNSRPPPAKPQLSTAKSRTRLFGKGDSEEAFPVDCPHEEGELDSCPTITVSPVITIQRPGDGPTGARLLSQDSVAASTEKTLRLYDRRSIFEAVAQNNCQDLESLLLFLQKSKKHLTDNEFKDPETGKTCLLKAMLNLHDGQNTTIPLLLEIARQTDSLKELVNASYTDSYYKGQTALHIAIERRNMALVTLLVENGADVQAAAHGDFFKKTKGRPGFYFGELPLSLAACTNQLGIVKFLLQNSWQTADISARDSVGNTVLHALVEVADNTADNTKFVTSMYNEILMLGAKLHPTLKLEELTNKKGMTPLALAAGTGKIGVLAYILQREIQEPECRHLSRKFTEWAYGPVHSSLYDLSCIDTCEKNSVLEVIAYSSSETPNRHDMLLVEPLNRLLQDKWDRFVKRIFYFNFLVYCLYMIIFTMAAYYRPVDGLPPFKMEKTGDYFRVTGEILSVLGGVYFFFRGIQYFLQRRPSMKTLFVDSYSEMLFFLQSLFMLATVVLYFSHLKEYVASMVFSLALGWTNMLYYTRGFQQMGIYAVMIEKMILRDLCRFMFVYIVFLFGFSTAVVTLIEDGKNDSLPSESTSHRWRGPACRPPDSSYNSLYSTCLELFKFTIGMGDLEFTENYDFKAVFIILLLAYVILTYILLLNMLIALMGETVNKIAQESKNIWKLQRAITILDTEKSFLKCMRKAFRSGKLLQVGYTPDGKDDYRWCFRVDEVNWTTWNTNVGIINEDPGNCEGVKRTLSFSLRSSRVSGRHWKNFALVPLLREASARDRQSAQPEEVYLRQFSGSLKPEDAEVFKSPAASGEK
T3 sequence (P34972 whole entry): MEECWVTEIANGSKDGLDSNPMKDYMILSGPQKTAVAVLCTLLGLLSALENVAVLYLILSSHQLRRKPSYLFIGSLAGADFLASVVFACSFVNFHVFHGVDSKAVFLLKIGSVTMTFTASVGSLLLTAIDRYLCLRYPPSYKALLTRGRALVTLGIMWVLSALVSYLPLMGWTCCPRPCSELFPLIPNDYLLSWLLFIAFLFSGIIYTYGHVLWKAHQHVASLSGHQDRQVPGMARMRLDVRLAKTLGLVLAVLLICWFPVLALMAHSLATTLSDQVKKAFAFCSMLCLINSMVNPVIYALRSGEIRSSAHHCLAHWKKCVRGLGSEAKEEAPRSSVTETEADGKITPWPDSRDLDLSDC

Consider `CN1CCCC[C@H]1Cn1cc(C(=O)c2cc([N+](=O)[O-])ccc2I)c2ccccc21` [(S)-AM1241], for which the “% inhibition PPARα (h)” value in data set [1] is recorded as -18%. Also, in data set [2], the “TRPV1 Efficacy (% ionomycin 4μM)” value is 12.0% and the IC50 was greater than 50 µM. For the same molecule, the concentration for a half-maximal effect (EC50) in [2] (read-out: TRPV1 Potency EC50) was greater than 50 µM. In addition, the “pKi ± SEM hCB2R” value in data set [3] (setting [12]) turned out to be 7.02 ± 0.15. Besides, in data set [4], the AUCinf amounted to 276 ng·h/mL, the AUCinf/dose turned out to be 145 kg·ng·h/mL/mg, the AUClast came to 269 ng·h/mL and the CL is 6.9 L/h/kg. In [4], the T1/2 is recorded as 1.4 h and the C0 is recorded as 413 ng/mL. In addition, the “pEC50 ± SEM GIRK hCB1R” value in data set [5] is less than 5. In data set [5] (normalized to CP55940), the “Emax ± SEM GIRK hCB1R” value worked out at 19 ± 3%. This molecule also yielded a CL hepatocytes mouse in data set [6] of 251 µL/min/mio cells. Also, the “% inhibition Ca2+ channel (L, diltiazem site)” value (“% inhibition Ca2+ channel” below) in data set [7] is on record as 90%. The “pEC50 ± SEM GIRK hCB2R” value in data set [8] came to 5.6 ± 0.14. In addition, the “Emax ± SEM GIRK hCB2R” value in data set [8] (normalized to CP55940) came to 68 ± 13%. For the same molecule, the “% inhibition mu (MOP) (h)” value in data set [9] is 46%. Further, the “pKi ± SEM mCB1R” value in data set [10] is 6.48 ± 0.08. Besides, in [11], the “TRPV3 Efficacy (% ionomycin 4μM)” value is reported as 16.2% and the concentration for half-maximal inhibition (IC50) was greater than 50 µM. Also, the EC50 in data set [11] (read-out: TRPV3 Potency EC50) turned out to be 9 µM.

Take `COc1ccc(C(=O)c2c(C)n(CCN3CCOCC3)c3cc(I)ccc23)cc1` [AM630]: the “% inhibition PPARα (h)” value in data set [1] was -17%. Besides, in data set [2], the “TRPV1 Efficacy (% ionomycin 4μM)” value is reported as less than 10% and the half-inhibitory concentration (IC50) is greater than 100 µM. Besides, the “pKi ± SEM hCB2R” value in [3] came out at 7.39 ± 0.02. Further, in data set [4], the AUCinf came out at 197 ng·h/mL, the AUCinf/dose worked out at 197 kg·ng·h/mL/mg, the AUClast was 177 ng·h/mL and the CL is 5.1 L/h/kg. Further, in data set [4], the T1/2 came to 2.9 h and the C0 is 69.8 ng/mL. In data set [6], this molecule yielded a CL hepatocytes mouse of 101 µL/min/mio cells. In addition, the “% inhibition Ca2+ channel” value in data set [7] is listed as -11%. The “pEC50 ± SEM GIRK hCB2R” value in data set [8] was found to be 5.82 ± 0.08. Also, in data set [9], the “% inhibition mu (MOP) (h)” value came out at 21%. Besides, the “pKi ± SEM mCB1R” value in data set [10] was found to be 5.6 ± 0.298. In data set [11], the “TRPV3 Efficacy (% ionomycin 4μM)” value is reported as less than 10% and the half-inhibitory concentration (IC50) is greater than 100 µM.

For `Cc1ccc2c(c1)Cc1c(C(=O)NN3CCCCC3)nn(-c3ccc(Cl)cc3Cl)c1-2` [Gp-1a], in [1], the “% inhibition PPARα (h)” value is recorded as -9%. In addition, in data set [2], the “TRPV1 Efficacy (% ionomycin 4μM)” value is recorded as less than 10% and the IC50 came to 3 ± 0.1 µM. Also, the “pKi ± SEM hCB2R” value in data set [3] (setting [12]) stood at 7.66 ± 0.11. Besides, in [4], the AUCinf was 825 ng·h/mL, the AUCinf/dose was 412 kg·ng·h/mL/mg, the AUClast was 658 ng·h/mL and the CL is 2.4 L/h/kg. In data set [4], the T1/2 turned out to be 3.5 h and the C0 is listed as 351 ng/mL. Further, the “pEC50 ± SEM GIRK hCB1R” value in data set [5] is 5.26 ± 0.1. Besides, the CL hepatocytes mouse in data set [6] stood at 78 µL/min/mio cells. The “% inhibition Ca2+ channel” value in data set [7] came to 34%. Besides, the “CB2R Selectivity GIRK” value in data set [8] (10^(pEC50 CB2R-pEC50 CB1R)) is given as 5 fold. In addition, the “pEC50 ± SEM GIRK hCB2R” value in [8] (antagonists in presence of CP55940) is on record as 5.99 ± 0.08. The “% inhibition mu (MOP) (h)” value in data set [9] was found to be 102%. Further, the “pKi ± SEM mCB1R” value in data set [10] was found to be 6.37 ± 0.08. In addition, in data set [11], the “TRPV3 Efficacy (% ionomycin 4μM)” value was less than 10% and the 50% inhibitory concentration (IC50) was 22.6 µM.

For the molecule `CCCn1c(C)c(C(=O)c2cccc3ccccc23)c2ccccc21` [JWH015], the “% inhibition PPARα (h)” value in data set [1] is given as -16%. In [4], the AUCinf stood at 174 ng·h/mL, the AUCinf/dose was 158 kg·ng·h/mL/mg, the AUClast turned out to be 163 ng·h/mL and the CL worked out at 6.3 L/h/kg. In addition, in data set [4], the T1/2 amounted to 2.6 h and the C0 was 438 ng/mL. In addition, the CL hepatocytes mouse in data set [6] amounted to 205 µL/min/mio cells. For the same molecule, the “% inhibition Ca2+ channel” value in data set [7] is given as 33%. Moreover, in data set [9], the “% inhibition mu (MOP) (h)” value was 7%. The “pKi ± SEM mCB1R” value in data set [10] came to 5.94 ± 0.15.

What is called IC50 is the midpoint of a concentration-inhibition curve. The EC50 is the concentration giving half of the maximal effect.

The values above are taken from article PMC5216056 (Nature Communications, 2017).
